Values joined by “and” are separate entries in the source; they are usually repeats but may differ in a detail not shown here. Equal values may be shown once. Toxic doses and inconclusive results are not listed. The calls were made as follows: active = survival T/C of 150% or more; inactive = T/C below 125% in these data.
Test system: BDF1 mice, B16 melanoma ip, median survival T/C
Assay: NCI In Vivo Anticancer Drug Screen. Data for tumor model B16 Melanoma (intraperitoneal) in B6D2F1 (BDF1) mice
Details: endpoint: median survival time, higher = longer survival
Outline: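 Survival or tumor size is measured after treatment of tumor-bearing mice and normalised to the vehicle-treated control group.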

[1] = dose: 50.0 mg/kg/injection, schedule: Q01DX009 (ip), vehicle: saline with Tween-80
[2] = dose: 100.0 mg/kg/injection, schedule: Q01DX009 (ip), vehicle: saline with Tween-80
[3] = dose: 200.0 mg/kg/injection, schedule: Q01DX009 (ip), vehicle: saline with Tween-80
[4] = dose: 400.0 mg/kg/injection, schedule: Q01DX009 (ip), vehicle: saline with Tween-80
[5] = dose: 100.0 mg/kg/injection, schedule: Q01DX009 (ip), vehicle: saline
[6] = dose: 50.0 mg/kg/injection, schedule: Q01DX009 (ip), vehicle: Klucel (hydroxypropylcellulose) (HPC)
[7] = dose: 100.0 mg/kg/injection, schedule: Q01DX009 (ip), vehicle: Klucel (hydroxypropylcellulose) (HPC)
[8] = dose: 200.0 mg/kg/injection, schedule: Q01DX009 (ip), vehicle: Klucel (hydroxypropylcellulose) (HPC)
[9] = dose: 400.0 mg/kg/injection, schedule: Q01DX009 (ip), vehicle: Klucel (hydroxypropylcellulose) (HPC)
[10] = dose: 5.0 mg/kg/injection, schedule: Q01DX009 (ip), vehicle: saline with Tween-80
[11] = dose: 10.0 mg/kg/injection, schedule: Q01DX009 (ip), vehicle: saline with Tween-80
[12] = dose: 100.0 mg/kg/injection, schedule: Q04DX003 (ip), vehicle: Klucel (hydroxypropylcellulose) (HPC)
[13] = dose: 200.0 mg/kg/injection, schedule: Q04DX003 (ip), vehicle: Klucel (hydroxypropylcellulose) (HPC)
[14] = dose: 400.0 mg/kg/injection, schedule: Q04DX003 (ip), vehicle: Klucel (hydroxypropylcellulose) (HPC)

Measured: T/C

Nc1ccnc(=O)[nH]1
inactive: dose: 32.0 mg/kg/injection, schedule: Q01DX009 (ip), vehicle: Klucel (hydroxypropylcellulose) (HPC) 98 % of control and 102 % of control | dose: 32.0 mg/kg/injection, schedule: Q01DX009 (ip), vehicle: saline with Tween-80 113 % of control | dose: 32.0 mg/kg/injection, schedule: Q01DX009 (ip), vehicle: saline 104 % of control | dose: 64.0 mg/kg/injection, schedule: Q01DX009 (ip), vehicle: Klucel (hydroxypropylcellulose) (HPC) 101 % of control and 106 % of control | dose: 64.0 mg/kg/injection, schedule: Q01DX009 (ip), vehicle: saline with Tween-80 97 % of control | dose: 64.0 mg/kg/injection, schedule: Q01DX009 (ip), vehicle: saline 110 % of control | dose: 128.0 mg/kg/injection, schedule: Q01DX009 (ip), vehicle: Klucel (hydroxypropylcellulose) (HPC) 103 % of control and 113 % of control | dose: 128.0 mg/kg/injection, schedule: Q01DX009 (ip), vehicle: saline with Tween-80 103 % of control | dose: 128.0 mg/kg/injection, schedule: Q01DX009 (ip), vehicle: saline 119 % of control | dose: 256.0 mg/kg/injection, schedule: Q01DX009 (ip), vehicle: Klucel (hydroxypropylcellulose) (HPC) 94 % of control and 103 % of control | dose: 256.0 mg/kg/injection, schedule: Q01DX009 (ip), vehicle: saline 105 % of control | dose: 512.0 mg/kg/injection, schedule: Q01DX009 (ip), vehicle: Klucel (hydroxypropylcellulose) (HPC) 100 % of control and 102 % of control | dose: 512.0 mg/kg/injection, schedule: Q01DX009 (ip), vehicle: saline with Tween-80 111 % of control | dose: 512.0 mg/kg/injection, schedule: Q01DX009 (ip), vehicle: saline 110 % of control

C=CC1CN2CCC1CC2C(O)c1ccnc2ccc(OC)cc12 (stereo not drawn) (tested in a mixture with another compound)
inactive: [1] 107 % of control | [2] 107 % of control | [3] 101 % of control

Oc1ccc2ccccc2c1N=Nc1ccc(F)cc1
inactive: [2] 119 % of control | [4] 108 % of control

Cc1cc(C)nc(NC(N)=NCCc2ccccc2)n1
inactive: dose: 12.5 mg/kg/injection, schedule: Q01DX009 (ip), vehicle: saline with Tween-80 104 % of control | dose: 25.0 mg/kg/injection, schedule: Q01DX009 (ip), vehicle: saline with Tween-80 88 % of control | [1] 97 % of control

Cc1ccc(Cl)cc1NC(=O)Nc1ccc(Cl)c(Cl)c1
inactive: dose: 75.0 mg/kg/injection, schedule: Q01DX009 (ip), vehicle: Klucel (hydroxypropylcellulose) (HPC) 97 % of control | dose: 150.0 mg/kg/injection, schedule: Q01DX009 (ip), vehicle: Klucel (hydroxypropylcellulose) (HPC) 92 % of control

COc1cc(C=O)cc(O)c1O
inactive: [5] 95 % of control | dose: 200.0 mg/kg/injection, schedule: Q01DX009 (ip), vehicle: saline 111 % of control

CCCCCCCCCCCCCCOC(=O)Cl
inactive: [6] 90 % of control | [7] 92 % of control | [8] 96 % of control | [9] 91 % of control

O=C(COc1ccc(Cl)cc1)NCCc1ccccc1
inactive: [7] 93 % of control | [8] 103 % of control | [9] 90 % of control

O=C1C=C(N2CC2)c2ccccc2C1=O
inactive: [10] 105 % of control | [11] 100 % of control

C/C=C/C=C/c1cc2cc3c(c(O)c2c(=O)[nH]1)C1(CC3)C(O)=c2c(=O)c3c(=O)cc(OC)c(=O)c=3c(=O)c2=C1O (stereo not drawn)
inactive: dose: 0.06 mg/kg/injection, schedule: Q01DX009 (ip), vehicle: DMSO 98 % of control | dose: 0.12 mg/kg/injection, schedule: Q01DX009 (ip), vehicle: DMSO 99 % of control | dose: 0.25 mg/kg/injection, schedule: Q01DX009 (ip), vehicle: DMSO 96 % of control | dose: 0.5 mg/kg/injection, schedule: Q01DX009 (ip), vehicle: DMSO 120 % of control

OCc1cc2ccccc2[nH]1
inactive: [12] 112 % of control | [13] 110 % of control | [14] 106 % of control

CN1C(=O)CCS(=O)(=O)C1c1ccc(Cl)cc1 (stereo not drawn)
inactive: dose: 0.13 mg/kg/injection, schedule: Q01DX009 (ip), vehicle: saline 109 % of control | dose: 0.25 mg/kg/injection, schedule: Q01DX009 (ip), vehicle: saline 101 % of control | dose: 0.38 mg/kg/injection, schedule: Q01DX009 (ip), vehicle: saline 95 % of control | dose: 0.39 mg/kg/injection, schedule: Q01DX009 (ip), vehicle: Klucel (hydroxypropylcellulose) (HPC) 100 % of control | dose: 0.5 mg/kg/injection, schedule: Q01DX009 (ip), vehicle: saline 111 % of control | dose: 0.75 mg/kg/injection, schedule: Q01DX009 (ip), vehicle: saline 98 % of control | dose: 1.0 mg/kg/injection, schedule: Q01DX009 (ip), vehicle: saline 115 % of control | dose: 1.5 mg/kg/injection, schedule: Q01DX009 (ip), vehicle: saline 101 % of control | dose: 1.56 mg/kg/injection, schedule: Q01DX009 (ip), vehicle: Klucel (hydroxypropylcellulose) (HPC) 109 % of control | dose: 2.0 mg/kg/injection, schedule: Q01DX009 (ip), vehicle: saline 104 % of control | dose: 3.0 mg/kg/injection, schedule: Q01DX009 (ip), vehicle: saline 104 % of control | dose: 3.12 mg/kg/injection, schedule: Q01DX009 (ip), vehicle: Klucel (hydroxypropylcellulose) (HPC) 100 % of control | dose: 6.25 mg/kg/injection, schedule: Q01DX009 (ip), vehicle: Klucel (hydroxypropylcellulose) (HPC) 102 % of control

Clc1nc(SC2=NCCN2)c2[nH]cnc2n1
inactive: dose: 1.25 mg/kg/injection, schedule: Q01DX009 (ip), vehicle: saline with Tween-80 93 % of control | dose: 2.5 mg/kg/injection, schedule: Q01DX009 (ip), vehicle: saline with Tween-80 97 % of control | [10] 101 % of control | [11] 101 % of control and 103 % of control

CC(=O)OCC(Br)C(Br)COC(C)=O (stereo not drawn)
inactive: [2] 100 % of control | [3] 97 % of control | [4] 97 % of control

CC(=O)NC(C=O)C(O)C(O)C(O)C(=O)O (stereo not drawn)
inactive: dose: 25.0 mg/kg/injection, schedule: Q01DX009 (ip), vehicle: Klucel (hydroxypropylcellulose) (HPC) 101 % of control | [6] 100 % of control | [7] 92 % of control

C[Si](C)(O[Si](C)(C)c1ccccc1)c1ccccc1
inactive: dose: 25.0 mg/kg/injection, schedule: Q01DX009 (ip), vehicle: saline 123 % of control | [5] 114 % of control

C=C(Cl)CN(CCCC(=O)O)c1cccc(OC)c1
inactive: dose: 100.0 mg/kg/injection, schedule: Q04DX003 (ip), vehicle: other 104 % of control | dose: 200.0 mg/kg/injection, schedule: Q04DX003 (ip), vehicle: other 96 % of control | dose: 400.0 mg/kg/injection, schedule: Q04DX003 (ip), vehicle: other 94 % of control

Cc1ccc(NC(=O)c2cccc(C(=O)Nc3ccc(C)c(C)c3)c2)cc1C
inactive: [12] 97 % of control | [13] 90 % of control | [14] 93 % of control

OCC1OC(OC2(CO)OC(CO)C(O)C2O)C(O)C(O)C1O (stereo not drawn)
inactive: dose: 3.9 mg/kg/injection, schedule: Q01DX005 (ip), vehicle: saline 104 % of control | dose: 7.81 mg/kg/injection, schedule: Q01DX005 (ip), vehicle: saline 87 % of control | dose: 15.63 mg/kg/injection, schedule: Q01DX005 (ip), vehicle: saline 105 % of control | dose: 31.25 mg/kg/injection, schedule: Q01DX005 (ip), vehicle: saline 104 % of control | dose: 62.5 mg/kg/injection, schedule: Q01DX005 (ip), vehicle: saline 105 % of control | dose: 125.0 mg/kg/injection, schedule: Q01DX005 (ip), vehicle: saline 105 % of control | dose: 250.0 mg/kg/injection, schedule: Q01DX005 (ip), vehicle: saline 109 % of control | dose: 500.0 mg/kg/injection, schedule: Q01DX005 (ip), vehicle: saline 105 % of control | dose: 1000.0 mg/kg/injection, schedule: Q01DX005 (ip), vehicle: saline 104 % of control | dose: 2000.0 mg/kg/injection, schedule: Q01DX005 (ip), vehicle: saline 102 % of control

Source: PubChem BioAssay AID192 (DTP/NCI, 2004)
